Experimental findings from US20240285613A1, “TREATMENT FOR AUTOIMMUNE DISEASES” (LDN Pharma Limited, priority 2021, published 2024) are described below.

Structures are written as SMILES.

Holding throughout (assay type): cell-based, human
Holding throughout (conditions): 4 h

Test [1] deals with mRNA for one or more of 5-HT receptor proteins. In words: Microarray gene expression in CD3+ lymphocytes, summary over 5-HT receptors.
Protocol: (§1) CD3+ lymphocytes were isolated from the blood of haematologically normal volunteers. Cells placed into 25 cm^3 flasks at a concentration of 1×10^6/ml, and left to equilibrate in an incubator with a humidified atmosphere and 5% CO2 in air at 37° C. […] RNA extraction was performed using Trizol according to standard procedures, before being processed for microarray analysis according to the standard methodologies. Briefly, equal amounts of biotinylated cRNA was hybridised to the Illumina human HT 12-v3 arrays for 18 h and subsequently processed according to manufacturer's instructions before scanning on an Illumina BeadArray Reader. The image data were processed using default values in GenomeStudio v2009.1 with imputation of missing data, before loading onto GeneSpring v9.0 for data normalisation and filtering. Data analyses were performed using Excel software, and the ratio of gene expression signals in treated vs. untreated calculated.
A further test deals with 5-HT receptor 2B, mRNA. In words: Microarray gene expression in CD3+ lymphocytes, probe ILMN_1735764 (HTR2B).
Test [2] deals with 5-HT receptor 4, transcript variant a, mRNA. The experiment in a line: Microarray gene expression in CD3+ lymphocytes, probe ILMN_1676350 (HTR4).
Protocol: as §1
Test [3] has as its system 5-HT receptor 3A, transcript variant 1, mRNA. The experiment in a line: Microarray gene expression in CD3+ lymphocytes, probe ILMN_1681492 (HTR3A).
Protocol: as §1
Test [4] relates to 5-HT receptor 4, transcript variant hb, mRNA. In words: Microarray gene expression in CD3+ lymphocytes, probe ILMN_1808258 (HTR4).
Protocol: as §1
The subject of test [5] is 5-HT receptor 3A, transcript variant 2, mRNA. The experiment in a line: Microarray gene expression in CD3+ lymphocytes, probe ILMN_2371079 (HTR3A).
Protocol: as §1
Another test concerns 5-HT receptor 2C, mRNA. The experiment in a line: Microarray gene expression in CD3+ lymphocytes, probe ILMN_1801357 (HTR2C).
The test system of test [6] is 5-HT receptor 3A, transcript variant 2, mRNA. The experiment in a line: Microarray gene expression in CD3+ lymphocytes, probe ILMN_1662070 (HTR3A).
Protocol: as §1
In a further test the test system is 5-HT receptor 1E, mRNA. In words: Microarray gene expression in CD3+ lymphocytes, probe ILMN_1794095 (HTR1E).
Test [7] deals with 5-HT receptor 7 (adenylate cyclase-coupled), transcript variant a, mRNA. The experiment in a line: Microarray gene expression in CD3+ lymphocytes, probe ILMN_1744217 (HTR7).
Protocol: as §1

Protocol for 5-HT receptor 1E, mRNA: as §1
Protocol for 5-HT receptor 2B, mRNA: as §1
Protocol for 5-HT receptor 2C, mRNA: as §1

Take `O=C1CC[C@@]2(O)[C@H]3Cc4ccc(O)c5c4[C@@]2(CCN3CC2CC2)[C@H]1O5` [NTX, 17-cyclopropylmethyl-4.5-epoxy-3,14-dihydroxymorphinan-6-one]: the “levels of mRNA for one or more of 5-HT receptor proteins” value in [1] (higher dose naltrexone (10 uM)) and in [1] (low dose naltrexone (10 nM)) was “increase the levels of mRNA” each time. For the same compound, the “gene expression signal, HTR2B” value is given as 147.45 with 5-HT receptor 2B, mRNA (LDN 10 nM) and 177.95 in the test on 5-HT receptor 2B, mRNA (NTX 10 uM). The “gene expression signal, HTR4 transcript variant a” value turned out to be 100.20 in test [2] (LDN 10 nM) and 96.10 in test [2] (NTX 10 uM). The results for the “gene expression signal, HTR3A transcript variant 1” value in [3] (LDN 10 nM) and in test [3] (NTX 10 uM) were 94.00 and 86.75, respectively. The “gene expression signal, HTR4 transcript variant hb” value in test [4] (LDN 10 nM) is 93.50; in test [4] (NTX 10 uM) it was 88.20. Besides, the “gene expression signal, HTR3A transcript variant 2” value in test [5] (LDN 10 nM) amounted to 124.70; in test [5] (NTX 10 uM), 151.75; in test [6] (LDN 10 nM) it was 82.35; in test [6] (NTX 10 uM), 80.60. The “gene expression signal, HTR2C” value with 5-HT receptor 2C, mRNA (LDN 10 nM) was 85.50; in the test on 5-HT receptor 2C, mRNA (NTX 10 uM), 89.50. For the same compound, the “gene expression signal, HTR1E” value is recorded as 101.20 in the test with 5-HT receptor 1E, mRNA (LDN 10 nM) and 95.70 in the test with 5-HT receptor 1E, mRNA (NTX 10 uM). The “gene expression signal, HTR7 transcript variant a” value is given as 80.00 in test [7] (LDN 10 nM) and 86.60 in [7] (NTX 10 uM).
